From the NIST ThermoML archive (doi:10.1021/je900954y)

Assays:
[1] = 101 kPa, Liquid
[2] = xn = mol fraction of the nth substance listed; settings: 101 kPa, Liquid

OCCO [1,2-ethanediol]
[1]
Settings	mass density [kg/m3]	viscosity [mPa·s]
298.15 K	1109.2	15.41
303.15 K	1104.2	12.73
308.15 K	1100.6	10.66

CCCCCCO [hexan-1-ol] + CC(O)CO
[2], x1 = 1
Settings	mass density [kg/m3]	viscosity [mPa·s]
298.15 K	815.4	4.643
303.15 K	811.5	3.999
308.15 K	808.3	3.471

CCCCCCCO [heptan-1-ol]
[1]
Settings	mass density [kg/m3]	viscosity [mPa·s]
298.15 K	818.9	5.914
303.15 K	815.4	5.045
308.15 K	811.9	4.34

CCCCCCO [hexan-1-ol]
[1]
Settings	mass density [kg/m3]	viscosity [mPa·s]
298.15 K	815.4	4.643
303.15 K	811.5	3.999
308.15 K	808.3	3.471

CCC(C)O (stereo not drawn) [butan-2-ol] + OCCO
[2]
Settings	mass density, 298.15 K [kg/m3]	mass density, 303.15 K [kg/m3]	mass density, 308.15 K [kg/m3]	viscosity, 298.15 K [mPa·s]	viscosity, 303.15 K [mPa·s]	viscosity, 308.15 K [mPa·s]
x1 = 0.0514	1085.8	1081.8	1078.5	14.67	12.2	10.24
x1 = 0.1049	1062.7	1059.1	1055.6	13.78	11.58	9.795
x1 = 0.1847	1029.6	1025.9	1022.8	12.29	10.43	8.898
x1 = 0.261	1000.3	996.7	993.4	10.82	9.184	7.897
x1 = 0.3516	968.3	964.6	960.9	9.089	7.76	6.681
x1 = 0.4562	934.5	930.7	926.9	7.352	6.211	5.442
x1 = 0.5039	920.3	916.4	912.5	6.669	5.641	4.96
x1 = 0.6639	876.9	873.1	868.9	4.971	4.182	3.803
x1 = 0.7723	850.9	847.3	842.9	4.301	3.618	3.347
x1 = 0.8751	828.2	824.7	820.1	3.791	3.18	3.034
x1 = 1	802.4	798.7	793.8	2.999	2.499	2.475

CC(O)CO (stereo not drawn) [1,2-propanediol]
[1]
Settings	mass density [kg/m3]	viscosity [mPa·s]
298.15 K	1033.1	45.44
303.15 K	1029.9	33.99
308.15 K	1025.4	26.34

CCC(C)O (stereo not drawn) [butan-2-ol]
[1]
Settings	mass density [kg/m3]	viscosity [mPa·s]
298.15 K	802.4	2.999
303.15 K	798.7	2.499
308.15 K	793.8	2.475

CCCCCCCO [heptan-1-ol] + CC(O)CO
[2], x1 = 1
Settings	mass density [kg/m3]	viscosity [mPa·s]
298.15 K	818.9	5.914
303.15 K	815.4	5.045
308.15 K	811.9	4.34

CC(O)CO (stereo not drawn) [1,2-propanediol] + CCCCCCCO
[2]
Settings	mass density, 298.15 K [kg/m3]	mass density, 303.15 K [kg/m3]	mass density, 308.15 K [kg/m3]	viscosity, 298.15 K [mPa·s]	viscosity, 303.15 K [mPa·s]	viscosity, 308.15 K [mPa·s]
x2 = 0	1033.1	1029.9	1025.4	45.44	33.99	26.34
x2 = 0.1383	980.3	976.4	972	27.34	20.69	16.05
x2 = 0.3163	928.8	925	920.8	15.9	12.8	9.977
x2 = 0.386	912.5	908.6	904.6	13.64	10.88	8.925
x2 = 0.4049	908.3	904.4	900.4	13.19	10.75	8.567
x2 = 0.4673	895.4	891.6	887.6	11.94	9.431	7.663
x2 = 0.6097	869.7	866	862.2	9.882	7.655	6.373
x2 = 0.7341	851	847.3	843.7	8.159	6.401	5.414
x2 = 0.8294	838.5	834.9	831.3	7.132	5.815	4.963

OCCO [1,2-ethanediol] + CCC(C)O
[2], x2 = 0
Settings	mass density [kg/m3]	viscosity [mPa·s]
298.15 K	1109.2	15.41
303.15 K	1104.2	12.73
308.15 K	1100.6	10.66

CC(O)CO (stereo not drawn) [1,2-propanediol] + CCCCCCO
[2]
Settings	mass density, 298.15 K [kg/m3]	mass density, 303.15 K [kg/m3]	mass density, 308.15 K [kg/m3]	viscosity, 298.15 K [mPa·s]	viscosity, 303.15 K [mPa·s]	viscosity, 308.15 K [mPa·s]
x2 = 0	1033.1	1029.9	1025.4	45.44	33.99	26.34
x2 = 0.0771	1004.5	1000.9	996.1	33.27	24.28	20.05
x2 = 0.1213	989.9	986.2	981.6	28.44	20.82	17.27
x2 = 0.2425	953.6	949.9	945.8	18.56	13.93	11.97
x2 = 0.3311	930.7	927	923.1	14.38	11.28	9.627
x2 = 0.5225	888.7	884.9	881.3	9.486	8.063	6.428
x2 = 0.5377	885.7	881.9	878.2	9.057	7.837	6.308
x2 = 0.6309	868.9	865.1	861.5	7.625	6.725	5.322
x2 = 0.7444	850.3	846.4	842.9	6.313	5.206	4.494
x2 = 0.8611	833.3	829.4	826	5.324	4.61	3.935
